In US5853695A, “Method for palliation of pain in human bone cancer using therapeutic tin-117m compositions” (Brookhaven Science Associates LLC, priority 1996, dated 1998):
“Also recorded” adds a separate entry of the source.

Assays:
[1] = test system: bone pain; test: Palliation of bone pain in human subjects (clinical study, patient pain records); format: in vivo; design: key to Result (pain relief): -: No relief; +: Partial Relief; ++: Good Relief
Experimental: (§1) Fourteen patients were enrolled in a controlled clinical study, including 9 males and 5 females. The patients were administered an Sn-117m chelate complex-containing composition (described above in Example 3) sufficient to provide between 33 and 156 μCi/kg body weight. The protocol was approved by an institutional review board and the United States Food and Drug Administration (FDA). All subjects gave informed consent.
(§2) Prior to initiation of therapy a Tc-99m MDP bone imaging study was obtained. Complete blood counts, including a differential and platelet count, electrolytes, and blood chemistries were obtained. No radiotherapy or chemotherapy had been administered to the patients in the prior month. Hormonal therapy was continued if the patient had been on hormonal therapy for more than three months without improvement in their clinical status.
(§3) Sn-117m (Sn^4+) DTPA was administered through an inlying infusion line over a period of 5-10 minutes. […] A complete urine collection was obtained over 4 days and a blood specimen obtained on the fourth day. This enabled an estimate of bone uptake. Two imaging studies to monitor the Sn-117m distribution were obtained in the first week and repeat chemistries were obtained at one week. Complete blood counts were obtained weekly for at least two months and less frequently thereafter. A repeat Tc-99m MDP bone imaging study was performed at two months.
Patients maintained a record of pain levels and sites daily for two weeks and then twice a week for the next 6 weeks.

[2] = test system: white blood cells and platelets; test: Hemopoietic toxicity by complete blood counts (white blood cells, platelets); format: in vivo, human
Experimental: as §2, §3
As a result, a dosage of the Sn-117m chelate within the range found to be effective for consistent pain reduction can also be expected to be non-toxic to the patient.

[3] = test system: bone; test: External gamma camera / SPECT imaging of distribution in patients; format: in vivo, human
Experimental: Also note that the dose of the Sn-117m compound is within the range of dosages found to palliate pain according to the method of the invention.
The right panel depicts a three-dimensional reprojection image from SPECT (Single Photon Emission Computed Tomography) of a portion of the skeleton in the same patient.
as §3

[4] = test system: bone; test: Bone uptake estimated from 4-day urine collection and blood specimen (% Total in Bone); format: in vivo, human; settings: i.v. infusion
Experimental: as §1, §3

Substance: Sn-117m (Sn^4+) diethylenetriaminepentaacetic acid [Sn-117m (Sn^4+) DTPA]
- Result (pain relief) ([1]; Patient 4, prostate cancer, 61 kg, single 4.70 mCi (0.077 mCi/kg)): -
- Result (pain relief) ([1]; Patient 6, unknown primary cancer, 108 kg, single 8.41 mCi (0.078 mCi/kg)): +
- Result (pain relief) ([1]; Patient 7, prostate cancer, 59 kg, single 4.95 mCi (0.084 mCi/kg)): ++
- Result (pain relief) ([1]; Patient 8, lung cancer, 61 kg, single 8.95 mCi (0.146 mCi/kg)): ++
- Result (pain relief) ([1]; Patient 9, breast cancer, 59 kg, single 8.41 mCi (0.142 mCi/kg)): ++
- Result (pain relief) ([1]; Patient 10, breast cancer, 59 kg, single 8.00 mCi (0.135 mCi/kg)): ++
- Result (pain relief) ([1]; Patient 11, prostate cancer, 67 kg, single 10.46 mCi (0.156 mCi/kg)): +
- Result (pain relief) ([1]; Patient 12, prostate cancer, 93 kg, single 14.46 mCi (0.156 mCi/kg)): ++
- Result (pain relief) ([1]; Patient 13, prostate cancer, 118 kg, single 15.49 mCi (0.131 mCi/kg)): ++
- Result (pain relief) ([1]; Patient 14, breast cancer, 50 kg, single 7.54 mCi (0.151 mCi/kg)): +
- response to treatment, lower dose ([1]; patients given a lower dose): variable response to the treatment, in one case indicating that no relief was had
- relief of pain, higher dose ([1]; seven patients who received more than about 9 mCi/70 kg (~129 μCi/kg), listed as Sn-117m chelates): all experienced relief of pain; also recorded: five experienced excellent relief; also recorded: two experienced partial relief
- relief or palliation of pain, overall ([1]; single administrations, 33 to 156 μCi/kg, fourteen patients): dose-dependent relief or palliation of pain
- white blood cell (WBC) count or platelet count ([2]; Patient 11, over three months following single administration (10.4 mCi)): no decrease
- hemopoietic toxicity ([2]; all patients in the study): no patients in the study showed evidence of hemopoietic toxicity
- distribution in bone, whole body and SPECT images ([3]; cancer patient with bone metastases, 4 days after 5 mCi, FIG. 2): patchy bright spots denote spread of cancer to bone
- distribution in bone by gamma camera imaging compared with technetium-99m-MDP ([3]; patient with prostate cancer spread to bone, 4 days after 10 mCi, FIG. 1): similarity of distribution of the two nuclides
- % Total in Bone ([4]; Patient 9, breast cancer, 8.41 mCi (0.142 mCi/kg)): 72.1%
- % Total in Bone ([4]; Patient 10, breast cancer, 8.00 mCi (0.135 mCi/kg)): 59.2%
- % Total in Bone ([4]; Patient 11, prostate cancer, 10.46 mCi (0.156 mCi/kg)): 58.0%
- % Total in Bone ([4]; Patient 12, prostate cancer, 14.46 mCi (0.156 mCi/kg)): 34.1%
- % Total in Bone ([4]; Patient 13, prostate cancer, 15.49 mCi (0.131 mCi/kg)): 71.3%
- % Total in Bone ([4]; Patient 14, breast cancer, 7.54 mCi (0.151 mCi/kg)): 69.2%
